The source made the active and inactive calls. The calls are words filed in the database; no cut-off is given here.
Columns and labels:
[1] = system: Jurkat; experiment: Cytotoxicity against human Jurkat cells at 1 uM; format: functional, cell-based
[2] = system: Jurkat; experiment: Immunomodulatory activity in human Jurkat cells assessed as stimulation index at 0.001 to 5 uM after 36 hrs by [3H]thymidine incorporation assay; format: functional
[3] = system: Jurkat; experiment: Immunomodulatory activity in human Jurkat cells after 36 hrs by [3H]thymidine incorporation assay; format: functional, cell-based
[4] = system: Jurkat; experiment: Induction of apoptosis in human Jurkat cells assessed as enhancement of early apoptotic cells population at 10 uM after 18 hrs using annexin V-FITC staining by flow cytometry relative to control; format: functional
[5] = system: Jurkat; experiment: Cytotoxicity against human Jurkat cells at 5 uM; format: functional, cell-based
[6] = system: Jurkat; experiment: Induction of apoptosis in human Jurkat cells assessed as early apoptotic cells at 10 uM after 18 hrs using annexin V-FITC staining by flow cytometry; format: functional, cell-based
[7] = system: Jurkat; experiment: Cytotoxicity against human Jurkat cells at 5 to 10 uM; format: functional, cell-based
[8] = system: Jurkat; experiment: Cytotoxicity against human Jurkat cells up to 10 uM; format: functional, cell-based

Structure (SMILES): COc1ccc(/C=C/C(=O)O[C@@H]2[C@H](OC(C)=O)[C@@H](O[C@@H]3O[C@@H](C)[C@H](O)[C@@H](O)[C@H]3O)[C@H](OC(=O)[C@]34CCC(C)(C)C[C@H]3C3=CC[C@@H]5[C@@]6(C)CC[C@H](O[C@@H]7O[C@H](C(=O)O)[C@@H](O)[C@H](O)[C@H]7O[C@@H]7O[C@H](CO)[C@H](O)[C@H](O)[C@H]7O)[C@@](C)(C=O)[C@@H]6CC[C@@]5(C)[C@]3(C)C[C@H]4O)O[C@@H]2C)cc1
- Activity [1]: Active
- Activity [2]: 1.44
- Activity [3]: Dose-dependent effect
- fold change (FC) [4]: 2.8

Structure (SMILES): COc1ccc(/C=C/C(=O)O[C@@H]2[C@H](O)[C@@H](O[C@@H]3O[C@@H](C)[C@H](O)[C@@H](O)[C@H]3O)[C@H](OC(=O)[C@]34CCC(C)(C)C[C@H]3C3=CC[C@@H]5[C@@]6(C)CC[C@H](O[C@@H]7O[C@H](C(=O)O)[C@@H](O)[C@H](O)[C@H]7O[C@@H]7O[C@H](CO)[C@H](O)[C@H](O)[C@H]7O)[C@@](C)(C=O)[C@@H]6CC[C@@]5(C)[C@]3(C)C[C@H]4O)O[C@@H]2C)cc1 (mixture of isomers) [JENISSEENSOSIDE C/D]
- Activity [2]: 1.36
- Activity [5]: Active
- fold change (FC) [4]: 9

Structure (SMILES): C[C@@H]1O[C@@H](O[C@H]2[C@H](OC(=O)[C@]34CCC(C)(C)C[C@H]3C3=CC[C@@H]5[C@@]6(C)CC[C@H](O[C@@H]7O[C@H](C(=O)O)[C@@H](O)[C@H](O)[C@H]7O[C@@H]7O[C@H](CO)[C@H](O)[C@H](O)[C@H]7O)[C@@](C)(C=O)[C@@H]6CC[C@@]5(C)[C@]3(C)C[C@H]4O)O[C@H](C)[C@H](O)[C@@H]2O)[C@H](O)[C@H](O)[C@H]1O
- Activity [6]: inactive
- Activity [7]: inactive

Structure (SMILES): CC(=O)OC[C@H]1O[C@@H](O[C@H]2[C@@H](OC(C)=O)[C@@H](C)O[C@@H](OC(=O)[C@]34CCC(C)(C)C[C@H]3C3=CC[C@@H]5[C@@]6(C)CC[C@H](O[C@@H]7O[C@H](C(=O)O)[C@@H](O)[C@H](O)[C@H]7O[C@@H]7O[C@H](CO)[C@H](O)[C@H](O)[C@H]7O)[C@@](C)(C=O)[C@@H]6CC[C@@]5(C)[C@]3(C)C[C@H]4O)[C@@H]2O[C@@H]2O[C@@H](C)[C@H](O[C@@H]3OC[C@@H](O)[C@H](O[C@@H]4OC[C@H](O)[C@H](O)[C@H]4O[C@@H]4OC[C@H](O)[C@H](O)[C@H]4O)[C@H]3O)[C@@H](O)[C@H]2O)[C@H](O)[C@@H](O)[C@@H]1O
- Activity [8]: inactive
- Activity [2]: 1.56

Source: ChEMBL document CHEMBL1156413, “New acylated triterpene saponins from Silene fortunei that modulate lymphocyte proliferation” (2002)
